According to article PMC4855186, “Characterization of primary human hepatocyte spheroids as a model system for drug-induced liver injury, liver function and disease” (Scientific Reports, 2016):

Tests used:
[1] = tested on: PHH spheroids; experiment: Neutral lipid staining (steatosis) in PHH spheroids; type: cell-based, human; details: 10 μM co-exposure with CsA 30 μM, 48 h; n = 3, p = 0.009
Description: PHH spheroids were treated with 30 μM cyclosporine A (CsA) and/or 10 μM α-tocopherol (α-TOH) as indicated. After 48 h, spheroids were fixed and incubated with HCS LipidTOX Green neutral lipid stain (1:500). CellProfiler software was used to quantify neutral lipid staining.

[2] = tested on: PHH spheroids; experiment: Chronic toxicity assay in PHH spheroids, viability by cellular ATP content; type: cell-based, human; details: for Fold changes in EC50 vs. 48 h (8 d): 8 d vs 48 h exposure; for Fold changes in EC50 vs. 48 h (28 d): 28 d vs 48 h exposure; for EC50: Homo sapiens
Description: Cryopreserved PHH (obtained from […], France or Bioreclamation IVT, USA) or fresh hepatocytes (obtained from patients subject to liver resections at Huddinge University Hospital, Stockholm, Sweden) were used for formation of spheroid cultures. Hepatocytes obtained from patient livers were isolated as previously described. Use of the liver specimens for this purpose was approved by the Ethics Committee at Karolinska Institutet ([…] Stockholm) and studies were carried out in accordance with the approved guidelines. Written informed consent was obtained from all donors of liver material. Cells were seeded into ultra-low attachment 96-well plates (Corning) at 1,500 viable cells per well and subsequently centrifuged at 100 × g for 2 min. Cells were seeded in 100 μl Williams E medium supplemented with 2 mM L-glutamine, 100 units/ml penicillin, 100 μg/ml streptomycin, 10 μg/ml insulin, 5.5 μg/ml transferrin, 6.7 ng/ml sodium selenite, 100 nM dexamethasone, and 10% FBS. Spontaneous self-aggregation of the hepatocytes initiated spheroid formation. From day 4 or 5 after seeding, when the spheroids were sufficiently compact, 50% of the medium was exchanged daily for serum-free medium. Spheroids were maintained in serum-free medium until day 35, with a medium change every 48-72 h. Cell viability was assessed by determining the ATP content of single PHH spheroids with the CellTiter-Glo Luminescent Cell Viability Assay (Promega, Sweden). At the same time-points, cell culture medium was collected and albumin concentrations were determined by ELISA (Bethyl laboratories, USA). Absolute ATP and albumin values were normalized to spheroid volumes as determined from bright field imaging to compensate for compaction. […] Treatment was started on day 8 with repeated dosing of PHH spheroids every second day in serum-free medium as indicated. Cell viability was assessed by determining the ATP content as indicated above. EC50 values were determined using GraphPad Prism (GraphPad Software, USA).

[3] = tested on: chimeric TK-NOG mice; design: method as in PMID 24736310; details: mice carrying human hepatocytes; cited from earlier work
[4] = human plasma Cmax; ref 21 (amiodarone), 22 (bosentan), 23 (diclofenac), 24 (fialuridine), 25 (tolcapone); read-out: In vivo Cmax; cited from earlier work
[5] = tested on: patients; design: method as in PMID 7565947; details: clinical trials, cited from earlier work
[6] = tested on: PHH spheroids; experiment: Toxicity in non-infected and adenovirus (AdGL)-infected PHH spheroids; type: cell-based, human; details: for EC50: Homo sapiens
Description: Cell viability was assessed by determining the ATP content of single PHH spheroids with the CellTiter-Glo Luminescent Cell Viability Assay (Promega, Sweden). At the same time-points, cell culture medium was collected and albumin concentrations were determined by ELISA (Bethyl laboratories, USA). Absolute ATP and albumin values were normalized to spheroid volumes as determined from bright field imaging to compensate for compaction.
A recombinant adenovirus (AdGL) expressing green fluorescent protein (GFP; described in ref. [44]) was added during PHH spheroid seeding at a multiplicity of infection (MOI) of 0.1. PHH were seeded into GravityPLUS hanging-drop 96-well plates (InSphero, Zurich, Switzerland) at 1,500 viable cells per well. Spheroids were transferred to Gravity TRAP 96-well plates (InSphero) on day 7. Culture conditions were identical to the conditions for spheroids formed in ultra-low attachment plates.

[7] = tested on: bile salt export pump (BSEP) mRNA; experiment: BSEP mRNA expression in PHH spheroids (RT-qPCR); type: cell-based, human; details: 5 μM
Description: (§1) PHH spheroids were dosed with 5 μM chlorpromazine every second day for 1 week. For the final exposure, 20 μM tauro-nor-THCA-25-DBD (Genomembrane Company Ltd., Yokohoma, Japan) was added. Bile acid accumulation was quantified and normalized to spheroid size using CellProfiler software.
Total RNA was isolated using Qiazol lysis reagent (Qiagen). RNA was reverse-transcribed into cDNA using SuperScript III reverse transcriptase and RT-qPCR analysis was performed using a TaqMan Universal mix on a 7500 Fast Real-Time PCR system.

[8] = tested on: PHH spheroids; experiment: Bile acid accumulation (tauro-nor-THCA-25-DBD) in PHH spheroids; type: cell-based, human; details: 5 μM every second day for 1 week; n = 3, p = 0.03
Description: as §1

[9] = tested on: Kupffer cells in co-culture spheroids; experiment: LPS-induced IL-6 secretion in PHH/NPC co-culture spheroids (ELISA); type: cell-based, human; details: 10 μg/ml, 48 h; co-culture spheroids compared to PHH spheroids
Description: When used, co-cultures of cryopreserved PHH and non-parenchymal cells (NPCs; Bioreclamation IVT) originating from different donors were thawed and seeded at a ratio of 2:1 (PHH:NPC) and 2,000 viable cells per well into ultra-low attachment plates. Functionality of Kupffer cells was assessed by measuring lipopolysaccharide (LPS)-induced interleukin 6 (IL-6) secretion. LPS was added at a concentration of 10 μg/ml and supernatants were collected after 48 h. IL-6 levels were determined via ELISA (Thermo Scientific).

[10] = PHH spheroids, viability by ATP content, 48 h exposure, read-out: EC50 (μM) 48h
[11] = PHH spheroids, viability by ATP content, dosing every second day, 7d (legend: 8 days), read-out: EC50 (μM) 7d
[12] = 672 h, PHH spheroids, viability by ATP content, dosing every second day, 28 days, read-out: EC50 (μM) 28d

Compound: Cc1c(C)c2c(c(C)c1O)CC[C@@](C)(CCC[C@H](C)CCC[C@H](C)CCCC(C)C)O2 [α-tocopherol]
- protection against cyclosporine A-induced neutral lipid accumulation [1]: fully protected

Compound: O=c1[nH]c(=O)n([C@@H]2O[C@H](CO)[C@@H](O)[C@@H]2F)cc1I [Fialuridine, fialuridine]
- Fold changes in EC50 vs. 48 h (8 d) [2]: 142.9 fold
- Fold changes in EC50 vs. 48 h (28 d) [2]: 1000 fold
- EC50 ([2]; 672 h, PHH spheroids, repeated dosing, 4 weeks, read-out: EC50 after 4 weeks): 0.1 µM
- EC50 [2, 10]: > 100 µM
- EC50 [2, 11]: 0.7 µM
- toxicity observed after 48 h ([2]; PHH spheroids, 48 h exposure): no toxicity
- hepatotoxicity [3]: induced hepatotoxicity
- Cmax [4]: 1000 nM
- patients who died ([5]; of those with severe hepatotoxicity): five
- patients who developed severe hepatotoxicity ([5]; several weeks after beginning treatment): 7/15

Compound: O=C(O)Cc1ccccc1Nc1c(Cl)cccc1Cl [Diclofenac, diclofenac]
- EC50 [2, 12]: 45.9 µM
- EC50 [2, 10]: 191 µM
- EC50 [2, 11]: 56.8 µM

Compound: C[C@H]1COc2c(N3CCN(C)CC3)c(F)cc3c(=O)c(C(=O)O)cn1c23 [levofloxacin]
- toxicity observed ([6]; infected spheroids): no toxicity
- toxicity observed ([6]; non-infected spheroids): no toxicity

Compound: Cc1ccc(C(=O)c2cc(O)c(O)c([N+](=O)[O-])c2)cc1 [Tolcapone, tolcapone]
- Fold changes in EC50 vs. 48 h (8 d) [2]: 2 fold
- Fold changes in EC50 vs. 48 h (28 d) [2]: 3.4 fold
- EC50 [2, 12]: 5.6 µM
- EC50 [2, 10]: 18.8 µM
- EC50 [2, 11]: 9.4 µM
- EC50 values related to reported in vivo Cmax ([2]; already after acute dosing): lower than the reported in vivo Cmax values

Compound: N[C@@H]1[C@H]2CN(c3nc4c(cc3F)c(=O)c(C(=O)O)cn4-c3ccc(F)cc3F)C[C@@H]12 [Trovafloxacin, trovafloxacin]
- EC50 ([6]; non-infected PHH spheroids): 96.1 µM
- EC50 ([6]; virus-infected PHH spheroids (AdGL, MOI 0.1)): 32.9 µM
- enhancement of toxicity by viral infection ([6]; infected vs non-infected spheroids, p < 0.001): 2.9 fold

Compound: COc1ccccc1Oc1c(NS(=O)(=O)c2ccc(C(C)(C)C)cc2)nc(-c2ncccn2)nc1OCCO [Bosentan, bosentan]
- Fold changes in EC50 vs. 48 h (8 d) [2]: 3.6 fold
- Fold changes in EC50 vs. 48 h (28 d) [2]: 6.0 fold
- EC50 [2, 12]: 41.8 µM
- EC50 [2, 10]: > 250 µM
- EC50 [2, 11]: 69.5 µM

Compound: CN(C)CCCN1c2ccccc2Sc2ccc(Cl)cc21 [chlorpromazine]
- BSEP mRNA expression [7]: down-regulation
- accumulation of fluorescently-labelled bile acid derivative tauro-nor-THCA-25-DBD [8]: significant accumulation

Compound: lipopolysaccharide [LPS]
- IL-6 secretion [9]: substantial increase
